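Method: 48-hour compound exposure of cells in 96-well plates, five concentrations, linear interpolation of endpoints. TGI is the concentration that stops growth completely.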
Key:
Experiment in all cases: NCI anticancer screen, dose series, 48 h
786-0 renal = tested on: 786-0 renal
A498 renal = tested on: A498 renal
A549 NSCLC = tested on: A549 NSCLC
ACHN renal = tested on: ACHN renal
CAKI-1 renal = tested on: CAKI-1 renal
CCRF-CEM leukemia = tested on: CCRF-CEM leukemia
COLO 205 colon = tested on: COLO 205 colon
DLD-1 colon = tested on: DLD-1 colon
DMS 273 small cell lung = tested on: DMS 273 small cell lung
EKVX NSCLC = tested on: EKVX NSCLC
HCC-2998 colon = tested on: HCC-2998 colon
HCT-116 colon = tested on: HCT-116 colon
HCT-15 colon = tested on: HCT-15 colon
HL-60(TB) leukemia = tested on: HL-60(TB) leukemia
HOP-18 NSCLC = tested on: HOP-18 NSCLC
HOP-62 NSCLC = tested on: HOP-62 NSCLC
HOP-92 NSCLC = tested on: HOP-92 NSCLC
HT29 colon = tested on: HT29 colon
IGROV1 ovarian = tested on: IGROV1 ovarian
K-562 leukemia = tested on: K-562 leukemia
KM12 colon = tested on: KM12 colon
KM20L2 colon = tested on: KM20L2 colon
LOX IMVI melanoma = tested on: LOX IMVI melanoma
LXFL 529 NSCLC = tested on: LXFL 529 NSCLC
M14 melanoma = tested on: M14 melanoma
M19-MEL melanoma = tested on: M19-MEL melanoma
MALME-3M melanoma = tested on: MALME-3M melanoma
MOLT-4 leukemia = tested on: MOLT-4 leukemia
NCI-H226 lung = tested on: NCI-H226 lung
NCI-H23 lung = tested on: NCI-H23 lung
NCI-H460 lung = tested on: NCI-H460 lung
NCI-H522 lung = tested on: NCI-H522 lung
OVCAR-3 ovarian = tested on: OVCAR-3 ovarian
OVCAR-4 ovarian = tested on: OVCAR-4 ovarian
OVCAR-5 ovarian = tested on: OVCAR-5 ovarian
OVCAR-8 ovarian = tested on: OVCAR-8 ovarian
RPMI-8226 leukemia = tested on: RPMI-8226 leukemia
RXF 393 renal = tested on: RXF 393 renal
SF-268 CNS = tested on: SF-268 CNS
SF-295 CNS = tested on: SF-295 CNS
SF-539 CNS = tested on: SF-539 CNS
SK-MEL-2 melanoma = tested on: SK-MEL-2 melanoma
SK-MEL-28 melanoma = tested on: SK-MEL-28 melanoma
SK-MEL-5 melanoma = tested on: SK-MEL-5 melanoma
SK-OV-3 ovarian = tested on: SK-OV-3 ovarian
SN12C renal = tested on: SN12C renal
SNB-19 CNS = tested on: SNB-19 CNS
SNB-75 CNS = tested on: SNB-75 CNS
SNB-78 CNS = tested on: SNB-78 CNS
SR leukemia = tested on: SR leukemia
SW-620 colon = tested on: SW-620 colon
TK-10 renal = tested on: TK-10 renal
U251 CNS = tested on: U251 CNS
UACC-257 melanoma = tested on: UACC-257 melanoma
UACC-62 melanoma = tested on: UACC-62 melanoma
UO-31 renal = tested on: UO-31 renal
XF 498 CNS = tested on: XF 498 CNS

## Cc1cc(N)c2cc(NC(=O)CCCCCCCCC(=O)Nc3ccc4nc(C)cc(N)c4c3)ccc2n1
786-0 renal
  TGI: > 100 µM
A498 renal
  TGI: 74 µM
A549 NSCLC
  TGI: > 31.6 µM
ACHN renal
  TGI: > 100 µM
CAKI-1 renal
  TGI: > 100 µM
CCRF-CEM leukemia
  TGI: > 61.3 µM
COLO 205 colon
  TGI: > 100 µM
DLD-1 colon
  TGI: > 100 µM
DMS 273 small cell lung
  TGI: > 45.3 µM
EKVX NSCLC
  TGI: > 89 µM
HCC-2998 colon
  TGI: > 82.9 µM
HCT-116 colon
  TGI: > 79 µM
HCT-15 colon
  TGI: > 100 µM
HL-60(TB) leukemia
  TGI: > 100 µM
HOP-18 NSCLC
  TGI: > 100 µM
HOP-62 NSCLC
  TGI: > 100 µM
HOP-92 NSCLC
  TGI: 80.3 µM
HT29 colon
  TGI: > 100 µM
IGROV1 ovarian
  TGI: > 100 µM
K-562 leukemia
  TGI: > 100 µM
KM12 colon
  TGI: > 68.4 µM
KM20L2 colon
  TGI: > 74.3 µM
LOX IMVI melanoma
  TGI: > 100 µM
LXFL 529 NSCLC
  TGI: > 100 µM
M14 melanoma
  TGI: > 100 µM
M19-MEL melanoma
  TGI: > 100 µM
MALME-3M melanoma
  TGI: 68.8 µM
MOLT-4 leukemia
  TGI: > 39.8 µM
NCI-H226 lung
  TGI: 56.3 µM
NCI-H23 lung
  TGI: > 100 µM
NCI-H460 lung
  TGI: > 100 µM
NCI-H522 lung
  TGI: 5.36 µM
OVCAR-3 ovarian
  TGI: > 100 µM
OVCAR-4 ovarian
  TGI: > 100 µM
OVCAR-5 ovarian
  TGI: > 100 µM
OVCAR-8 ovarian
  TGI: > 100 µM
RPMI-8226 leukemia
  TGI: > 100 µM
RXF 393 renal
  TGI: > 100 µM
SF-268 CNS
  TGI: > 100 µM
SF-295 CNS
  TGI: > 88.7 µM
SF-539 CNS
  TGI: 26.5 µM
SK-MEL-2 melanoma
  TGI: > 100 µM
SK-MEL-28 melanoma
  TGI: 97 µM
SK-MEL-5 melanoma
  TGI: > 100 µM
SK-OV-3 ovarian
  TGI: > 100 µM
SN12C renal
  TGI: 26.6 µM
SNB-19 CNS
  TGI: > 100 µM
SNB-75 CNS
  TGI: > 100 µM
SNB-78 CNS
  TGI: > 100 µM
SR leukemia
  TGI: > 100 µM
SW-620 colon
  TGI: > 100 µM
TK-10 renal
  TGI: > 100 µM
U251 CNS
  TGI: 49.3 µM
UACC-257 melanoma
  TGI: 96.9 µM
UACC-62 melanoma
  TGI: > 100 µM
UO-31 renal
  TGI: > 100 µM
XF 498 CNS
  TGI: > 100 µM

Reference: PubChem BioAssay (NCI)
